Measured values published in US20040092591A1, “Therapeutic use of fused bicyclic or tricyclic amino acids” (priority 2002, published 2004).

Target: T1, α2δ subunit derived from porcine brain tissue (Sus scrofa, UniProt A0A287BIN3)
T1 construct: the α2δ subunit derived from porcine brain tissue; from tissue; host or cells: porcine brain
Test: radioligand binding assay using [3H]gabapentin and the α2δ subunit
Conditions: [3H]gabapentin radioligand
Description: The biological activity of the compounds of the invention may be measured in a radioligand binding assay using [^3H]gabapentin and the α2δ subunit derived from porcine brain tissue (Gee N. S., Brown J. P., Dissanayake V. U. K., Offord J., Thurlow R., Woodruff G. N., […] J. Biol. Chem., 1996;271:5879-[…]). Results may be expressed in terms of μM or nM α2δ binding affinity.

T1 sequence (A0A287BIN3 entry or part of it): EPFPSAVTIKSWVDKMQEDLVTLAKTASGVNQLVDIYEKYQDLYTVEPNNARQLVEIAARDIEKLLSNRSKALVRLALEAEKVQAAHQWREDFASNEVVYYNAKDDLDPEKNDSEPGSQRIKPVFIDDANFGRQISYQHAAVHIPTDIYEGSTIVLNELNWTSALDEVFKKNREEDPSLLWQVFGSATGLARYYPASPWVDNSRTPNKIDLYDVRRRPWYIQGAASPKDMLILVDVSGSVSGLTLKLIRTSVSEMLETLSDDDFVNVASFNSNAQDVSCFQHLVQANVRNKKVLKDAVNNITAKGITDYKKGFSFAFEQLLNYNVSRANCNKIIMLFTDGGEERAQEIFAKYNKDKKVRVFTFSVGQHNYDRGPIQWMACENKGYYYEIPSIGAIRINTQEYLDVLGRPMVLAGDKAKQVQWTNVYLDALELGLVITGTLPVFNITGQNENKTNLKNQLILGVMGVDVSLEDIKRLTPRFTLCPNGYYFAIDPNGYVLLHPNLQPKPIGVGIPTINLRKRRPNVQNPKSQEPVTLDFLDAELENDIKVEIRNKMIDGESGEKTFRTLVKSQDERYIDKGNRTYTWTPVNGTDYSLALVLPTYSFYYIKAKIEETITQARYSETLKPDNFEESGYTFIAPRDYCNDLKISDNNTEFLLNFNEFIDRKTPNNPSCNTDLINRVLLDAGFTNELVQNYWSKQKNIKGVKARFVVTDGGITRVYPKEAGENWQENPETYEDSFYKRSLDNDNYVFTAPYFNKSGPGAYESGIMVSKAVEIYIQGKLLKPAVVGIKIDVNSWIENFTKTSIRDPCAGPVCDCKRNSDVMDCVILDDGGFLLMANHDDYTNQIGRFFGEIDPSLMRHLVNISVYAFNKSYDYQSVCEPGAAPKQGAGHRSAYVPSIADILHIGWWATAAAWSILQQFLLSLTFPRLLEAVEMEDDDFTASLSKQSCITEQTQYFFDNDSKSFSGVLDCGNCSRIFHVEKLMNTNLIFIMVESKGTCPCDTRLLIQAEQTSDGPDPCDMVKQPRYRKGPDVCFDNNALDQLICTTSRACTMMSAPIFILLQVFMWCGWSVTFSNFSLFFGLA

For `Cl.NC[C@]1(CC(=O)O)C[C@H]2CCCC[C@H]21` (racemic) [Example 4, [(1RS,6RS,7SR)-7-(Aminomethyl)bicyclo[4.2.]oct-7-yl]acetic acid hydrochloride], the α2δ binding affinity was 600 nM.

With `Cl.NC[C@]1(CC(=O)O)C[C@H]2CCC[C@H]21` [Example 1, [(1R,5R,6S)-6-(Aminomethyl)bicycl[3.2.0]hept-6-yl]acetic acid hydrochloride] the α2δ binding affinity was 46.8 nM.
